Data: publication PMC10004195, “Novel Dual-Target Kinase Inhibitors of EGFR and ALK Were Designed, Synthesized, and Induced Cell Apoptosis in Non-Small Cell Lung Cancer” (Molecules, 2023)
Like-named read-outs stand apart in the source and are kept apart here.

Columns and labels:
[1] = system: H1975 (EGFR T790M/L858R) cells; experiment: CCK8 antiproliferative assay, H1975 cells; assay type: cell-based, human
Source text: (§1) The human cancer cell lines (H1975, H2228) used in this study were purchased from the Guangzhou ginny ou biotechnology Co., Ltd. (Guangzhou, China). The human cancer cell lines (NCI-H522) used in this study were purchased from the Shenzhen Haodi Huatuo Biotechnology Co., LTD (Shenzhen, China). The human cancer cell lines (LOVO, HLF, BJ, LO2) used in this study were purchased from the Laboratory Animal Service Center at Sun Yat-sen University (Guangzhou, China). […] Cell lines LOVO, HLF, BJ, and LO2 were cultivated in DMEM containing 10% (v/v) heat-inactivated fetal bovine serum (FBS), 100 units/mL penicillin, and 100 μg/mL streptomycin.

[2] = system: H522 cells; experiment: CCK8 antiproliferative assay, H522 cells; assay type: cell-based; conditions: Homo sapiens, NCI-H522, 72 h
Source text: The human cancer cell lines (H1975, H2228) used in this study were purchased from the Guangzhou ginny ou biotechnology Co., Ltd. (Guangzhou, China). The human cancer cell lines (NCI-H522) used in this study were purchased from the Shenzhen Haodi Huatuo Biotechnology Co., LTD (Shenzhen, China). The human cancer cell lines (LOVO, HLF, BJ, LO2) used in this study were purchased from the Laboratory Animal Service Center at Sun Yat-sen University (Guangzhou, China). Cell lines were cultivated in 1640 containing 10% (v/v) heat-inactivated fetal bovine serum (FBS), 100 units/mL penicillin, and 100 μg/mL streptomycin. Cell lines LOVO, HLF, BJ, and LO2 were cultivated in DMEM containing 10% (v/v) heat-inactivated fetal bovine serum (FBS), 100 units/mL penicillin, and 100 μg/mL streptomycin.

[3] = system: H2228 (EML4-ALK) cells; experiment: CCK8 antiproliferative assay, H2228 cells; assay type: cell-based, human; conditions: read-out: IC50 H2228
Source text: as §1

[4] = system: HK2 (human kidney proximal convoluted tubule epithelial cells); experiment: Cytotoxicity test on nontumorigenic cells, HK2; assay type: cell-based; conditions: Homo sapiens, Epithelial cell; HK2, mean ± SE; read-out: Toxicity to normal cells, IC50 HK2
Source text: (§2) It is critical to evaluate the balance between the safety and efficacy of drugs for the development of new drugs; thus, we then conducted a cytotoxicity test on […] types of nontumorigenic cell lines from different origins, including LO2 (human normal liver cells), HK2 (human kidney proximal convoluted tubule epithelial cells), HLF (human embryonic lung fibroblast), 293A (human embryonic kidney cells), and HUVEC (human umbilical vein endothelial cells). […] In addition, we evaluated the compound’s safety in vivo by performing acute toxicity tests in mice, and 9j was injected intravenously at concentrations of 100 mg/kg, 150 mg/kg, and 300 mg/kg.
(§3) A total of 7000 cells per well were seeded in a 96-well plate with at least three technical replicates; then, exposed to different concentrations (10, 5, 1, 0.1, 0.05, 0.01 uM) of the test compounds for 72 h. After the treatment, CCK8 (Sigma, St. Louis, MO, USA) was added to each well under sterile conditions (to a final concentration of 10% of the total volume) and the plates were incubated for 2–4 h at 37 °C. Absorbance was measured at 450 nm in a microplate reader.

[5] = system: HUVEC (human umbilical vein endothelial cells); experiment: Cytotoxicity test on nontumorigenic cells, HUVEC; assay type: cell-based; conditions: Homo sapiens; HUVEC, mean ± SE; read-out: Toxicity to normal cells, IC50 HUVEC
Source text: as §2, §3

[6] = system: LO2 (human normal liver cells); experiment: Cytotoxicity test on nontumorigenic cells, LO2; assay type: cell-based; conditions: Homo sapiens; LO2, mean ± SE; read-out: Toxicity to normal cells, IC50 LO2
Source text: as §2, §3

[7] = system: HLF (human embryonic lung fibroblast); experiment: Cytotoxicity test on nontumorigenic cells, HLF; assay type: cell-based; conditions: Homo sapiens, Fibroblast, read-out: Toxicity to normal cells, IC50 HLF
Source text: as §2, §3

[8] = system: 293A (human embryonic kidney cells); experiment: Cytotoxicity test on nontumorigenic cells, 293A; assay type: cell-based; conditions: Homo sapiens, 293A, read-out: Toxicity to normal cells, IC50 293A
Source text: as §2, §3

[9] = Homo sapiens, NCI-H1975, 72 h, CCK8 assay, 72 h, H1975 (EGFR T790M/L858R), read-out: IC50 H1975
[10] = Homo sapiens, NCI-H2228, 72 h, CCK8 assay, 72 h, H2228 (EML4-ALK)
[11] = CCK8 assay, 72 h, H1975 (EGFR T790M/L858R), read-out: IC50 H1975

| Compound | IC50 [1, 9] [nM] | IC50 [2] [nM] | IC50 [3, 10] [nM] | also measured |
| --- | --- | --- | --- | --- |
| C=CC(=O)Nc1cc(Nc2ncc(Cl)c(Nc3ccccc3[S+]([O-])C3CC3)n2)c(OC)cc1C1CCN(C)CC1 (stereo not shown) [9a, N-(5-((5-Chloro-4-((2-(cyclopropylsulfinyl)phenyl)amino)pyrimidin-2-yl)amino)-4-methoxy-2-(1-methylpiperidin-4-yl)phenyl)acrylamide] | 451 ± 70 | > 10000 | 121 ± 90 | – |
| C=CC(=O)Nc1cc(Nc2ncc(Cl)c(Nc3ccccc3[S+]([O-])CC3CC3)n2)c(OC)cc1C1CCN(C)CC1 (stereo not shown) [9b, N-(5-((5-Chloro-4-((2-((cyclopropylmethyl)sulfinyl)phenyl)amino)pyrimidin-2-yl)amino)-4-methoxy-2-(1-methylpiperidin-4-yl)phenyl)acrylamide] | 68.9 | > 10000 | 98.9 | IC50 [1, 11]: 69 ± 7 nM; IC50 ([3]; CCK8 assay, 72 h, H2228 (EML4-ALK)): 99 ± 7 nM |
| C=CC(=O)Nc1cc(Nc2ncc(Cl)c(Nc3ccc(F)cc3[S+]([O-])CC3CC3)n2)c(OC)cc1C1CCN(C)CC1 (stereo not shown) [9c, N-(5-((5-Chloro-4-((2-((cyclopropylmethyl)sulfinyl)-4-fluorophenyl)amino)pyrimidin-2-yl)amino)-4-methoxy-2-(1-methylpiperidin-4-yl)phenyl)acrylamide] | 271 ± 130 | > 10000 | 103 ± 70 | – |
| C=CC(=O)Nc1cc(Nc2ncc(Cl)c(Nc3ccc(Cl)cc3[S+]([O-])CC3CC3)n2)c(OC)cc1C1CCN(C)CC1 (stereo not shown) [9d, N-(5-((5-Chloro-4-((4-chloro-2-((cyclopropylmethyl)sulfinyl)phenyl)amino)pyrimidin-2-yl)amino)-4-methoxy-2-(1-methylpiperidin-4-yl)phenyl)acrylamide] | 114 ± 80 | > 10000 | 89 ± 30 | – |
| C=CC(=O)Nc1cc(Nc2ncc(Cl)c(Nc3ccccc3[S+]([O-])CC)n2)c(OC)cc1C1CCN(C)CC1 (stereo not shown) [9e, N-(5-((5-Chloro-4-((2-(ethylsulfinyl)phenyl)amino)pyrimidin-2-yl)amino)-4-methoxy-2-(1-methylpiperidin-4-yl)phenyl)acrylamide] | 170 ± 20 | > 10000 | 97.7 ± 50 | – |
| C=CC(=O)Nc1cc(Nc2ncc(Cl)c(Nc3ccc(F)cc3[S+]([O-])CC)n2)c(OC)cc1C1CCN(C)CC1 (stereo not shown) [9f, N-(5-((5-Chloro-4-((2-(ethylsulfinyl)-4-fluorophenyl)amino)pyrimidin-2-yl)amino)-4-methoxy-2-(1-methylpiperidin-4-yl)phenyl)acrylamide] | 550 ± 90 | > 10000 | 92.8 ± 60 | – |
| C=CC(=O)Nc1cc(Nc2ncc(Cl)c(Nc3ccc(Cl)cc3[S+]([O-])CC)n2)c(OC)cc1C1CCN(C)CC1 (stereo not shown) [9g, N-(5-((5-Chloro-4-((4-chloro-2-(ethylsulfinyl)phenyl)amino)pyrimidin-2-yl)amino)-4-methoxy-2-(1-methylpiperidin-4-yl)phenyl)acrylamide] | 69 ± 10 | > 10000 | 104 ± 50 | – |
| C=CC(=O)Nc1cc(Nc2ncc(Cl)c(Nc3ccccc3[S+]([O-])C(C)C)n2)c(OC)cc1C1CCN(C)CC1 (stereo not shown) [9h, N-(5-((5-Chloro-4-((2-(isopropylsulfinyl)phenyl)amino)pyrimidin-2-yl)amino)-4-methoxy-2-(1-methylpiperidin-4-yl)phenyl)acrylamide] | 68.9 to 78.2 | > 10000 | 76.6 ± 20 | IC50 [1, 11]: 83.9 ± 30 nM |
| C=CC(=O)Nc1cc(Nc2ncc(Cl)c(Nc3ccc(F)cc3[S+]([O-])C(C)C)n2)c(OC)cc1C1CCN(C)CC1 (stereo not shown) [9i, N-(5-((5-Chloro-4-((4-fluoro-2-(isopropylsulfinyl)phenyl)amino)pyrimidin-2-yl)amino)-4-methoxy-2-(1-methylpiperidin-4-yl)phenyl)acrylamide] | 309 ± 110 | > 10000 | 98.1 ± 60 | – |
| Cc1cc(Nc2ncc(Cl)c(Nc3ccccc3S(=O)(=O)C(C)C)n2)c(OC(C)C)cc1C1CCNCC1 [Ceritinib, reference compound] | 78.3 ± 30 | – | 22.1 ± 8 | – |
| C=CC(=O)Nc1cc(Nc2nccc(-c3cn(C)c4ccccc34)n2)c(OC)cc1N(C)CCN(C)C [Osimertinib, reference compound] | – | – | – | IC50 [4]: 2130 ± 90 nM; IC50 [5]: 4340 ± 10 nM; IC50 ([1]; Homo sapiens, NCI-H1975, 72 h, read-out: IC50 H1975): 4.1 ± 1 nM; IC50 ([1]; Homo sapiens, NCI-H1975, read-out: IC50 H1975 (Table 2)): 4.1 ± 1 nM; IC50 [6]: 1720 ± 50 nM; IC50 [7]: 3240 ± 80 nM; IC50 [8]: 2250 ± 20 nM; IC50 ([3]; Homo sapiens, NCI-H2228, 72 h): 2016 ± 8 nM |
